Measurements reported in EP0067666A1, “Salts of antimicrobial naphthyridine and quinoline compounds and their production” (priority 1981, dated 1982).
In brackets after ≈: the same amount, converted by molar mass. Read-outs that look alike come from different tables or passages of the source. Marks after values point to notes of the source that are not given here.

Columns and labels:
Type in all cases: physicochemical
[1] = Solubility screening procedure (concentration and pH of filtrate); conditions: for Conc. of CPD B: compound B + equimolar acid; for Conc. of CPD B / Conc. of CPD A: amino acid or base in deionized water, room temperature, filtrate, UV assay; for pH of Solution: pH of the filtrate; for Conc. of CPD A: compound A + equimolar acid
Experimental: (§1) The amount of Compound A or Compound B calculated for selected concentrations was weighed into volumetric flasks. Equimolar quantities of combining acid, amino acid, or base were added either as solutions or in dry form. Deionized water was added to bring the volume to that desired for the preselected concentrations.. All flasks were sonicated for 15 minutes, allowed to stand at room temperature for 30 minutes, then filtered through a fine frit sintered glass funnel. After the pH of the filtrate was taken, suitable dilutions were made into 0.1N HCl for ultraviolet spectrophotometric assay of concentration. Ten fold dilutions of the original filtrates were made into standard I.V. solutions.

[2] = Solubility of lyophilized and crystalline solids; conditions: for Conc. of CPD A mg/ml Lyo. / solubility: not necessarily maximum value
[3] = 10x dilution of soluble forms with standard IV solutions (pH, precipitate); conditions: for Solution 1 ppt 4 hr / Solution 3 ppt 4 hr / Solution 2 ppt 4 hr / Solution 4 ppt 4 hr: precipitate at 4 hr; for Solution 1 ppt 24 hr / Solution 3 ppt 24 hr / Solution 2 ppt 24 hr / Solution 4 ppt 24 hr: precipitate at 24 hr; for Concen. of Cpd A: undiluted solution used for the 10x dilutions
Experimental: as §1

[4] = concentrated Cpd B solution (154-221 mg/ml) diluted 10x with 5% Dextrose
[5] = concentrated Cpd B solution (154-221 mg/ml) diluted 10x with 5% Dextrose + 0.9% NaCl
[6] = concentrated Cpd B solution (154-221 mg/ml) diluted 10x with Lactated Ringer's Solution
[7] = concentrated Cpd B solution (155-221 mg/ml) diluted 10x with 0.9% NaCl
[8] = concentrated Cpd B solution diluted 10x with 5% Dextrose + 0.9% NaCl
[9] = concentrated Cpd B solution diluted 10x with 5% Dextrose
[10] = concentrated Cpd B solution diluted 10x with Lactated Ringer's Solution
[11] = undiluted concentrated Cpd B solution used for the Solution 1 dilution
[12] = undiluted concentrated solution (at least 155 mg/ml) used for the Solution 1 dilution (for most salts for all four solutions)
[13] = Cpd A salt solution diluted 10x with 0.9% NaCl
[14] = Cpd A salt solution diluted 10x with 5% Dextrose
[15] = Cpd A salt solution diluted 10x with 5% Dextrose + 0.9% NaCl
[16] = Cpd A salt solution diluted 10x with Lactated Ringer's Solution
[17] = low-concentration Cpd B solution (26.2-52 mg/ml) diluted 10x with 0.9% NaCl
[18] = undiluted low-concentration Cpd B solution (26.2-52 mg/ml)
[19] = undiluted low-concentration solution (26.2-52 mg/ml), diluted with Solution 1 only
[20] = separate undiluted concentrated Cpd B solution used for Solutions 2-4 only
[21] = separate undiluted concentrated solution used for Solutions 2-4 only

Row | SMILES | Conc. of CPD B [1] [µg/mL] | pH of Solution ([1]; CPD B solutions) | pH of Solution Cryst. ([2]; CPD B salt, crystalline solid) | pH of Solution Lyo. ([2]; CPD B salt, lyophilized solid) | Solution 2 pH dil [3, 4] | Solution 3 pH dil [3, 5] | Solution 4 pH dil [3, 6] | Solution 1 pH dil [3, 7] | Solution 1 ppt 4 hr [3, 7] | Solution 1 ppt 24 hr [3, 7] | Solution 3 ppt 24 hr [3, 8] | Solution 2 ppt 24 hr [3, 9] | Solution 4 ppt 24 hr [3, 10] | pH of Solut. [3, 11] | Concen. of Cpd B [3, 12] [µg/mL] | pH of Solution Cryst. ([2]; CPD A salt, crystalline solid) | pH of Solution Lyo. ([2]; CPD A salt, lyophilized solid) | Conc. of CPD A mg/ml Lyo. ([2]; lyophilized solid) [mg/mL] | Solution 1 pH dil [3, 13] | Solution 1 ppt 24 hr [3, 13] | other results
1 | CCn1cc(C(=O)O)c(=O)c2cc(F)c(N3CCNCC3)nc21 [B Hydrochloric] | 7000 | 1.83^c | 3 |  |  |  |  |  |  |  |  |  |  |  |  |  |  |  |  |  | 
2 | CCn1cc(C(=O)O)c(=O)c2cc(F)c(N3CCNCC3)nc21 [B D-Gluconic] |  |  | 4.78 | 4.8 | 4.5 | 4.8 | 4.6 | 4.6 | no | yes | yes | no | no | 4.6 | 168000 |  |  |  |  |  | Solution 3 ppt 4 hr [3, 8]: no
3 | CCn1cc(C(=O)O)c(=O)c2cc(F)c(N3CCNCC3)cc21 [A L-Aspartic] |  |  |  |  |  |  |  |  |  |  |  |  |  |  |  | 4.8 | 4.5 | 256 | 5.05 | no | Conc. of CPD A [1]: 174000 µg/mL; pH of Solution ([1]; CPD A solutions): 4.88; Solution 2 pH dil [3, 14]: 4.83; Solution 3 pH dil [3, 15]: 4.84; Solution 3 ppt 24 hr [3, 15]: no; Solution 2 ppt 24 hr [3, 14]: slight; Solution 4 pH dil [3, 16]: 5.02; Solution 4 ppt 24 hr [3, 16]: no; pH of Solut. ([3]; undiluted Cpd A solution): 4.88; Concen. of Cpd A [3]: 174000 µg/mL
4 | CCn1cc(C(=O)O)c(=O)c2cc(F)c(N3CCNCC3)nc21 [B Methane Sulphonic] | 211000 | 1.67^c | 3.15 | 1.8 | 3.2 | 2.8 | 4.2 | 2.3 | yes | yes | yes | hazy | yes | 1.38 | 178000 |  |  |  |  |  | solubility ([2]; lyophilized solid, read-out: Conc. of CPD B mg/ml Lyo.): 200 mg/mL (≈ 624 mM); Solution 3 ppt 4 hr [3, 8]: yes; Solution 2 ppt 4 hr [3, 9]: hazy; Solution 4 ppt 4 hr [3, 10]: yes; Solution 1 pH dil [3, 17]: 4.47; Solution 1 ppt 24 hr [3, 17]: no; pH of Solut. [3, 18]: 5.07; Concen. of Cpd B [3, 19]: 26200 µg/mL
5 | CCn1cc(C(=O)O)c(=O)c2cc(F)c(N3CCNCC3)nc21 [B L-Aspartic] | 165000 | 4.64 | 4.80 | 4.65 | 4.83 | 4.71 | 4.94 | 4.82 | no | yes | yes | no | no | 4.64 | 165000 |  |  |  |  |  | Solution 1 pH dil [3, 17]: 5.54; Solution 1 ppt 24 hr [3, 17]: no; pH of Solut. [3, 20]: 4.60; Concen. of Cpd B [3, 21]: 190000 µg/mL; pH of Solut. [3, 18]: 4.48; Concen. of Cpd B [3, 19]: 49800 µg/mL
6 | CCn1cc(C(=O)O)c(=O)c2cc(F)c(N3CCNCC3)nc21 [B Isethionic] | 220000 | 1.01 | 2.84 | 1.4 | 2.35 | 2.14 | 3.95 | 2.08 | no | yes | yes | no | slight | 1.01 | 220000 |  |  |  |  |  | Solution 1 pH dil [3, 17]: 3.05; Solution 1 ppt 24 hr [3, 17]: no; pH of Solut. [3, 20]: 1.40; Concen. of Cpd B [3, 21]: 196000 µg/mL; pH of Solut. [3, 18]: 2.16; Concen. of Cpd B [3, 19]: 48800 µg/mL
7 | CCn1cc(C(=O)O)c(=O)c2cc(F)c(N3CCNCC3)cc21 [A D-Galacturonic] |  |  |  |  |  |  |  |  |  |  |  |  |  |  |  | 4.9 | 4.0 | 256 | 5.36 | no | solubility ([2]; crystalline solid, read-out: Conc. of CPD A mg/ml Cryst.): 183 mg/mL (≈ 573 mM); Solution 2 pH dil [3, 14]: 5.18; Solution 3 pH dil [3, 15]: 5.20; Solution 3 ppt 24 hr [3, 15]: no; Solution 2 ppt 24 hr [3, 14]: slight; Solution 4 pH dil [3, 16]: 5.36; Solution 4 ppt 24 hr [3, 16]: no; pH of Solut. ([3]; undiluted Cpd A solution): 5.44; Concen. of Cpd A [3]: 166000 µg/mL
8 | CCn1cc(C(=O)O)c(=O)c2cc(F)c(N3CCNCC3)nc21 [B L-Glutamic] | 160000 | 4.98 | 4.84 | 4.8 | 5.06 | 4.95 | 5.09 | 5.10 | no | yes | slight | slight | slight | 4.98 | 160000 |  |  |  |  |  | Solution 2 ppt 4 hr [3, 9]: slight; Solution 1 pH dil [3, 17]: 4.99; Solution 1 ppt 24 hr [3, 17]: no; pH of Solut. [3, 20]: 5.20; Concen. of Cpd B [3, 21]: 154000 µg/mL; pH of Solut. [3, 18]: 4.95; Concen. of Cpd B [3, 19]: 48200 µg/mL
9 | CCn1cc(C(=O)O)c(=O)c2cc(F)c(N3CCNCC3)nc21 [B L-Cysteic] | 221000 | 2.78 |  |  | 2.9 | 2.8 | 3.9 | 2.8 | yes | yes | yes | hazy | yes | 2.78 | 221000 |  |  |  |  |  | Solution 3 ppt 4 hr [3, 8]: yes; Solution 2 ppt 4 hr [3, 9]: hazy; Solution 4 ppt 4 hr [3, 10]: yes; Solution 1 pH dil [3, 17]: 3.29; Solution 1 ppt 24 hr [3, 17]: no; pH of Solut. [3, 18]: 2.96; Concen. of Cpd B [3, 19]: 52000 µg/mL
10 | CCn1cc(C(=O)O)c(=O)c2cc(F)c(N3CCNCC3)cc21 [A Lactic] |  |  |  |  |  |  |  |  |  |  |  |  |  |  |  | 5.15 | 4.6 | 256 | 4.3 | no | Conc. of CPD A [1]: 198000 µg/mL; pH of Solution ([1]; CPD A solutions): 4.05; Solution 2 pH dil [3, 14]: 4.8; Solution 3 pH dil [3, 15]: 4.2; Solution 3 ppt 24 hr [3, 15]: no; Solution 2 ppt 24 hr [3, 14]: no; Solution 4 pH dil [3, 16]: 4.5; Solution 4 ppt 24 hr [3, 16]: no; pH of Solut. ([3]; undiluted Cpd A solution): 4.17; Concen. of Cpd A [3]: 193000 µg/mL
11 | CCn1cc(C(=O)O)c(=O)c2cc(F)c(N3CCNCC3)cc21 [A D-Gluconic] |  |  |  |  |  |  |  |  |  |  |  |  |  |  |  | 4.83 | 5.1 | 255 | 4.4 | no | Solution 2 pH dil [3, 14]: 4.3; Solution 3 pH dil [3, 15]: 4.4; Solution 3 ppt 24 hr [3, 15]: no; Solution 2 ppt 24 hr [3, 14]: no; Solution 4 pH dil [3, 16]: 4.7; Solution 4 ppt 24 hr [3, 16]: no; pH of Solut. ([3]; undiluted Cpd A solution): 4.30; Concen. of Cpd A [3]: 182000 µg/mL
12 | CCn1cc(C(=O)O)c(=O)c2cc(F)c(N3CCNCC3)cc21 [A L-Glutamic] |  |  |  |  |  |  |  |  |  |  |  |  |  |  |  | 5.5 | 5.2 | 254 | 5.18 | no | Conc. of CPD A [1]: 174000 µg/mL; pH of Solution ([1]; CPD A solutions): 5.08; Solution 2 pH dil [3, 14]: 5.05; Solution 3 pH dil [3, 15]: 5.05; Solution 3 ppt 24 hr [3, 15]: no; Solution 2 ppt 24 hr [3, 14]: no; Solution 4 pH dil [3, 16]: 5.15; Solution 4 ppt 24 hr [3, 16]: no; pH of Solut. ([3]; undiluted Cpd A solution): 5.08; Concen. of Cpd A [3]: 174000 µg/mL
